Assays:
[1] = Color fastness to washing (Example 1): evaluation of rinsing waters; set-up: species or system human; conditions: 5 g of 2% water solution, 10 minutes at room temperature; rinsed 5 times with Sodium Laureth-2 Sulfate solution pH 7.5; FIG. 1; six swatches incl. non-treated
Experimental: The coloring formulation was applied in a quantity sufficient to color all the fibers of the swatches, then wrapped in an aluminum foil and left on for 35 minutes.
Afterwards, the swatches were rinsed with Davines SOLU shampoo of the Essential Hair Care line, directly on the previously wet swatches and rinsed for 30 seconds in order to remove the mixture.
Then, swatches are treated as follows:
5 g of 2% liposol maleate (Sabinsa Corporation) water solution,
5 g of 2% Olaplex® Bond Multiplier No 1 water solution.
A non-treated swatch is used as reference.
The specific treatments are left on hair fora period of 10 minutes at room temperature.
After 10 minutes, the swatches are rinsed 5 times with a Sodium Laureth-2 Sulfate (Zetesol Les 2/SL®) solution to pH 7.5. The rinsing procedure consists on providing 1.5 g of the surfactant solution per swatch, putting it on the swatch, and massaging for 10 seconds, then rinsing.
The rinsing treatment is carried out dipping the individual swatch for 10 times in a beaker containing 100 g water, in order to collect the rinsing water.

[2] = Protection of hair from bleaching treatment (Example 4), sensorial analysis; conditions: 3.5 g of a 12% water solution added to bleaching powder + Activator 40 vol. mixture; 30 minutes, treatment done twice
Experimental: The following specific compositions were separately added to the mixture:
a) 3.5 g of a 12% Liposol maleate (Sabinsa Corporation) water solution;
b) 3.5 g of a 12% On Protection (7% Liposol maleate and 13% maleic) water solution;
e) 3.5 g of a 12% Olaplex® Bond Multiplier No 1 water solution;
The swatches were left on for 30 minutes at room temperature wrapped in an aluminum foil.
After that, the swatches were rinsed using cold running water and carefully washed using Davines SOLU shampoo of the Essential Hair Care line.
After the left on period, the swatches were rinsed using cold running water for removing the mixture and further treated with Davines SOLU shampoo of the Essential Hair Care line.
Then, 2.5 g of the conditioner MOMO of the Essential Hair Care line are applied; left on for one minute and subsequently rinsed using cold running water.
Finally, the swatches were towel dried, dried with an airdryer and combed using a fine-tooth comb.

[3] = Hair resistance to bleaching treatment (Example 5), tensile strength test; conditions: 9 g (maleic acid, liposol maleate: 20% water solution) added to 20 g bleaching powder + 40 g Activator 40 vol.; 50 minutes; On Protection = 13% maleic acid and 7% Liposol maleate; five measurements, 6 cm hair, 0.5 mm/sec
Experimental: Five swatches of hair, weight and length standard, level 5, are treated with the coloration Davines Mask With Vibrachrom 4.0 mixed with the activator Davines Activator 20 vol., emulsion containing hydrogen peroxide, in a ratio of 1:1.5 as disclosed in the Davines manual and left on at room temperature for 35 minutes in a ratio of 1:1.5 as disclosed in the Davines manual.
During the left on period, the swatches were wrapped up in tinfoil and left at room temperature. After that, the swatches were rinsed with abundant running water and then washed with the Essential Hair Care SOLU shampoo of Davines line, washed and carefully dried with an airdryer.
At the end of the coloring process, the bleaching treatment starts.
Every swatch is decolored with 20 g of the bleaching powder Davines Mask Hair Bleaching Powder mixed with 40 g Davines Activator 40 vol.
Before application on the swatches, the mixtures are singularly added with the following solutions:
9 g Liposol maleate (Sabinsa Corporation)—20% water solution,
9 g Olaplex® Bond Multiplier No 1,
During the bleaching process, all the swatches are wrapped up in tinfoil, and left on for 50 minutes at room temperature.
After the left on period, the swatches are shampooed using Davines Hair Care DEDE shampoo and combed using a large-tooth comb.
A tensile strength test was carried out on all single swatches. […]

[4] = Hair fastness and easy bleaching (Example 7), tensile strength test; set-up: species or system human; conditions: 120 minutes
Experimental: Four swatches of human hair, weight and length level 5, are used.
The swatches are bleached using a mixture of 20 g Davines Mask Hair Bleaching Powder and 40 g Davines Activator 20 vol. to which the following compounds are added:
b) 3.5 g 12% Liposol maleate (Sabinsa Corp.) in water,
c) 3.5 g 12% Olaplex® Bond Multiplier No 1 in water,
During the bleaching process, all the swatches are wrapped up in aluminum foil, and afterward they are left on for 120 minutes at room temperature.
After the left on period, every swatch is rinsed with abundant running water and washed with a Sodium Lauth-2 sulfate (Zetesol Les 2/SL®) 15% water solution and to a pH 7.5, and dried by combing with a large-tooth comb.
The swatches are subsequently washed until a complete removal of the product.
The Tensile Strength Test was made with a dynamometer Texture Analysis Plus (Extended Height) using pneumatic clamps.
The tensile strength of hair treated with different compositions was compared with the tensile strength of the non-bleached virgin swatch (positive reference) and the tensile strength of the swatch treated only with Davines Mask Hair Bleaching Powder without a protective agent (negative reference). Five measurements for each single 6 cm long hair, and at constant rate of 0.5 mm/sec., were made.

[5] = Reducing treatment: curl resistance to repeated washings (Example 8); conditions: 1.8 ml added to 100 ml Balance Curling System #1 and to 100 ml Bouclè neutralizer (maleic acid, liposol maleate as 20% solution); 40 washings with 15% Sodium laureth-2 sulfate pH 7.5
Experimental: 1) 100 ml Davines Balance Curling System #1,
3) 100 ml Davines Balance Curling System #1 added with 1.8 ml of a Liposol maleate 20% solution (Sabinsa Corporation),
(§1) 4) 100 ml Davines Balance Curling System #1 added with 1.8 ml of Olaplex® Bond Multiplier No 1,
The above described reducing formulations (2 ml per hair swatch) were applied and left on for 30 minutes.
After the left on period, the swatches were washed with hot running water for one minute and left 10 minutes towel dried on air without any treatment, in order to stabilize the treatment.
Five neutralizing solutions are prepared:
1) 100 ml neutralizing solution Davines Bouclè Biowaving System Extra Delicate Neutralizer hydrogen peroxide 2.1%,
3) 100 ml neutralizing solution Davines Bouclè Biowaving System Extra Delicate Neutralizer added with 1.8 ml of Liposol Maleate 20% water solution (Sabinsa Corporation),
4) 100 ml neutralizing solution Davines Bouclè Biowaving System Extra Delicate Neutralizer added with 1.8 ml Olaplex® Bond Multiplier No 1,
Every swatch is left on for 10 minutes at room temperature.
Directly on the swatches and without rinsing, the neutralizing treatment is repeated in the same way, leaving on for other 10 minutes, for total 20 minutes.
After the left on period, the formulation in excess is rinsed with running water and the curlers are dried with a drier for 30 minutes. […]

[6] = Reducing treatment: hair conditioning (Example 9), evaluation by skilled technicians; set-up: species or system human; conditions: 5 g of 2% water solution (On Protection: 10% in method, 2% in results), 2 x 7.30 minutes after reducing treatment; 5 washings
Experimental: The coloring formulation was applied mixed with Davines Activator 20 vol., hydrogen peroxide emulsion, according to the Davines operating manual, in a 1:1.5 ratio.
The color was carefully applied in a quantity sufficient to color all the fibers of the swatches, then left on for 35 minutes at room temperature.
After that, the swatches were carefully rinsed with SOLU shampoo of the Essential Hair Care Davines line, in order to eliminate the excess color.
5 grams per swatch of the reducing formulation Davines Balance Curling System #1 are applied on the wet and towel dried swatches, and left on for 30 minutes.
After the left on period, the swatches are washed with water and ready to be treated with:
1) 5 g of maleic 2% water solution,
2) 5 g Liposol Maleate (Sabinsa Corporation) 2% water solution,
3) 5 g Olaplex® Bond Multiplier No 1, 2% water solution,
All the swatches are left on at room temperature for 7.30 minutes.
This treatment is repeated without rinsing, directly on the swatches, for 7.30 minutes (overall 15 minutes).
After the left on time, the swatches are rinsed with running water to eliminate the excess product.
(§2) Then, the swatches are carefully washed with a Sodium Laureth-2 sulfate (Zetesol Les 2/SL®) 15% and to a pH of 7.5. […]

[7] = Sensory properties of hair treated with a reducing treatment after coloring (Example 10); conditions: 5 g of 2% water solution, 2 x 7.30 minutes after bleaching, coloring and reducing treatment; washed with Sodium Laureth-2 sulfate 15% pH 7.5
Experimental: Four swatches of level 7 natural hair, standard weight and width, are bleached two times using the Davines Mask Hair Bleaching Powder mixed with an activator, hydrogen peroxide emulsion, Davines Activator 40 vol. in a 1:2 ratio.
The above described mixture is applied on single swatches in order to obtain a homogenous distribution of the product on the hair fibers.
The swatches are covered with an aluminum foil and left on for 50 minutes at room temperature. At the end of the left on period, the swatches are rinsed and carefully washed with a shampoo of the Davines Essential Hair Care SOLU line and dried. The entire process is repeated two times until to obtain the lightening level 11 according to Davines Color Manual.
The swatches as above treated are colored with Davines Mask with Vibrachrom 10.01 mixed with Davines Activator 20 vol. in a ratio 1:1.5 as disclosed in the Davines manual.
The coloration was applied to every swatch in an amount to obtain an homogeneous distribution of the product on all the hair fibers of the single swatch.
At the end of the coloration step, after rinsing with shampoo SOLU of the Essential Hair Care line of Davines and drying, the swatches are treated with 5 g of the Davines reducing formulation called Balance Curling System #1 and left on for 30 minutes at room temperature.
Then, the swatches are rinsed with water and treated as follows: […]

[8] = Color retention after reducing treatment (Example 11), evaluation by skilled technicians; set-up: species or system human; conditions: added to reducing composition and to neutralizing solution (1.8 ml per 100 ml) and applied afterwards as solution in 45 ml water, 7.5 minutes
Experimental: Five hair samples from a human subject having a standard weight and a width and level 7 are colored with a Davines Mask with Vibrachrom 3.51. The coloring formulation was applied mixed with Davines Activator 20 vol., hydrogen peroxide emulsion, according to Davines operating manual, in a 1:1.5 ratios. The color was carefully applied in a quantity sufficient to give a homogeneous color to all fibers of the swatches. The mixture was left on for 35 minutes at room temperature.
After that, the swatches were carefully rinsed with shampoo Davines SOLU of the Essential Hair Care line, in order to eliminate the excess color.
After the left on period, the swatches were treated with the following reducing compositions:
1) 100 ml Davines Balance Curling System #1
as §1
On the wet and towel dried swatches, 5 grams of the above described reducing formulations are applied per swatch, and then left on for 30 minutes.
After the left on period, the swatches are washed with hot running water for 1 minute and left 10 minutes towel dried on air without any treatment, in order to stabilize the treatment.
Five neutralizing solutions are prepared: […]
The swatches were evaluated from skilled technicians as follows:

[9] = Hair resistance to reducing treatment (Example 12), tensile strength test
Experimental: Five level 5 natural hair swatches, weight and width standard, are washed with Essential Hair Care SOLU shampoo.
Then, the swatches are towel dried with adsorbing paper for removing excess water and subsequently enrolled on 1 cm diameter curlers.
2 ml of Davines Balance Curling System #1 perm are applied on all the curlers using a spout dispenser and left on for 30 minutes.
After that, every curler is rinsed with abundant water for 1 minute using cold running water.
Then, the swatches are neutralized using different neutralizing solutions:
2.5 g Davines Bouclè Biowaving System Extra Delicate Neutralizer (hydrogen peroxide 2.1%),
2.5 g liposol maleate (Sabinsa Corp.) 2% water solution,
2.5 g Olaplex® Bond Multiplier No 1, 10% water solution,
The swatches are left on for 7.30 minutes at room temperature.
Without rinsing, directly on the swatches, the application of the neutralizing solutions is repeated according to the same procedure for other 7.30 minutes, totally 15 minutes.
After the left on period, the excess product is rinsed with cold running water and the curlers are dried in an oven ISCO at 53° C.±1 for 4 hours.
The swatches are removed from the curlers and the curl sinuosity is evaluated using a camera.
as §2
Then, the tensile strength was evaluated. […]

Water solubility = format: physicochemical

SMILES | limpidity / color intensity of the rinsing water (ranking) [1] | silkiness, smoothness and compactness of the swatches (sensorial analysis, ranking) [2] | Tensile Strength N [3] [N] | Tensile Strength N ([4]; 3.5 g 12% in water added to 20 g bleaching powder + 40 g Activator 20 vol., On Protection = 12% Liposol maleate + 8% maleic acid, five measurements, 6 cm hair, 0.5 mm/sec) [N] | resistance to hair breakage in comparison to other treatments (in words) ([4]; 3.5 g 12% in water added to bleaching mixture) | maintenance of the deviousness of the curls after repeated washings (ranking by skilled personnel) [5] | softness and silkiness (ranking by skilled technicians) [6] | chromatic differences / color retention [7] | color retention after the reducing treatment (evaluated by skilled technicians) [8] | Tensile Strength N ([9]; 2.5 g as neutralizing solution after perm (maleic acid, liposol maleate 2%; Olaplex, On Protection 12% liposol maleate/8% maleic acid 10% water solution), 2 x 7.30 minutes, 40 washings) [N] | protection of the swatches (conclusion in words) ([9]; in comparison with Olaplex® Bond Multiplier No 1 and Davines Bouclè Biowaving System Extra Delicate Neutralizer) | solubility in water (Water solubility)
CN(C)CCNC(=O)CCCCC1CCSS1.O=C(O)/C=C\C(=O)O (stereo not drawn) [Liposol maleate, 1,2-dithioane-3-pentanamide, N-(2-dimethylamino) ethyl salified with a mole of maleic acid] | third | better in relation to compactness, silkiness and smoothness | 0.98 ± 0.11 | 1.06 ± 0.13 | clearly show an improvement | maintain the deviousness of the curls in a lower degree | regard as preferred | do not present significant chromatic differences | more intensive and vibrating | 1.04 ± 0.16 | more protected | –
O=C(O)/C=C\C(=O)O [maleic acid, cis-butendioic acid] | – | – | – | – | – | – | – | – | – | – | – | water soluble
